This note sets out measurements from patent US20260242390A1, “TOTAL SYNTHESES OF PORTIMINE A AND ANALOGUES THEREOF AS SMALL MOLECULE MODULATORS OF NMD3” (priority 2023, published 2026).

One test has as its system HeLa. The test can be described thus: Broad cell line profiling, HeLa. The class given is cell-based. The following applies: Homo sapiens, Cervical Adenocarcinoma, read-out: PA IC50. An excerpt: (§1) • A panel of human and mouse cancer cell types used to assess the breadth of PA activity, including multiple therapy resistant metastatic mesenchymal tumor cell lines and primary glioblastoma patient-derived metastatic stem/tumor initiating cell populations.

For a further test, the system named is GBM-A. Nature of the test: Broad cell line profiling, GBM-A. The class given is cell-based. The following applies: Homo sapiens, Glioblastoma Cancer Stem Cell, read-out: PA IC50.
Description: as §1

The next test concerns MC38 colon carcinoma. The test can be described thus: MC38 Syngeneic Tumor Xenograft Model. The class given is in vivo, mouse. The following applies: 0.3 or 1.0 mg/kg, i.p. As for the experimental part: FIG. 4. Validation of NMD3 as target of Portimine A by Chemo-precipitation (ChP). Portimine A mouse pharmacokinetic properties and fast acting in vitro cell-based target engagement properties based on compound wash-out. (A) Pharmacokinetic studies of mouse intraperitoneal (i.p.) and oral (p.o.) administration for portimine (n=3). […] Impact of PA [0.3 or 1 mg/kg intraperitoneally] on MC38 tumor growth in WT mice (n=6). (C) Kaplan-Myer survival curve of WT MC38 tumor-bearing mice (n=6) after treatment with PA as described in (D). Mice were euthanized when tumor area exceeded 2000 mm^3. Statistical analysis was performed using ANOVA analysis followed by multiple comparisons test, * p≤0.05. Treatment condition: Jurkat (60 M per condition); PA-DA/ePA-DA concentration: 0.5 uM, PA or ePA: 5 uM; Incubate with probe with or without competitors (PA, ePA) for 30 min; UV irradiated for 20 min. (0.5 uM PA-DA add a no-UV condition); Standard pulldown & biotin-enrichment and western blot analysis (Elute condition: 2× sample buffer+500 uM biotin, boil for 20 mins); Primary antibody NMD3 (ProteinTech, 1:150), Actin (BioRad, 1:10000).
FIG. 9. […] (A) Systemic Portimine A in MC38 Syngeneic Tumor Xenograft Model; and (B) Systemic Portimine A in HT-1080 Tumor Xenograft Model. […]

As a reminder, the IC50 is the concentration needed to halve the response being measured.

`C=CC1=C[C@@H]2[C@@H]3O[C@]4(CC[C@H](O4)C(C)C[C@@H](O)C3=O)CC(O)C3=NCC[C@@]32CC1` (stereo partly drawn) [PA, portimine A]: the concentration for half-maximal inhibition (IC50) in the test with HeLa came out at 1.6 nM; with GBM-A, 2.6 nM. Besides, the “anti-tumor activity, MC38 colon carcinoma syngeneic model” value in the test on MC38 colon carcinoma is reported as “Potent anti-tumor activity”.
